Measured values from patent publication US12115251B2, “Hydrocortisone acetate suppository formulation for treatment of disease” (Cristcot LLC, priority 2015, dated 2024).

Assay type: physicochemical
Protocol: In order to assess the API release profile from the prototypes in Example 4 to identify a lead formulation, a robust dissolution method was developed. Solubility studies were performed on the API for the selection of dissolution media. For these studies, the active concentration of the dissolution media was 0.1 milligrams per milliliter (mg/mL).
According to USP guidelines (on sink conditions) the solubility needs to be at least 3 times the proposed active concentration. […] The studies next turned to the use of higher hydrocortisone acetate concentrations (0.3 mg/mL).
In order to avoid ionization of the hydrocortisone acetate in the dissolution media, a buffer of pH 5.0 was used in combination with 5% w/v SLS. The final composition of the dissolution media was 5% w/v SLS:acetate buffer (pH 5.0) in 70:30 combination with the pH of the final combination adjusted to 6.8-7.0.

average recovered solubility: 98.4%
% Solubility API (pH 7.2): 4.1%
SMILES: CC(=O)OCC(=O)[C@@]1(O)CC[C@H]2[C@@H]3CCC4=CC(=O)CC[C@]4(C)[C@H]3[C@@H](O)C[C@@]21C [hydrocortisone acetate]
